This is an account of results in patent US20220372040A1, “METTL3 MODULATORS” (Accent Therapeutics, Inc., priority 2020, published 2022).

What all share (assay type): biochemical
One experiment has as its target METTL3/METTL14 (Homo sapiens, UniProt Q86U44). Put plainly: METTL3-14 standard enzyme assay (3H-SAM flashplate scintillation). Conditions: METTL3/METTL14 2.5 nM, RNA 100 nM, 3H-SAM 100 nM, 30 min. The method, boiled down: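 METTL3/METTL14 (2.5 nM final) preincubated 5 min with compound in 20 mM HEPES pH 7.5, 50 mM KCl, 250 μM MgCl2, 1 mM DTT, ambient temperature; started with 100 nM 3′-biotinylated RNA (UCUGGACUAAA) and 100 nM 3H-SAM. After 30 min, quenched with 15 μM cold SAM; methylated RNA captured on streptavidin flashplates and counted by scintillation.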

The target in a further experiment is PRMT5-MEP50 (Homo sapiens, UniProt O14744). Kind of experiment: PRMT5 assay (3H-SAM flashplate scintillation). Conditions: PRMT5-MEP50 2.5 nM, histone H4 peptide 100 nM, 3H-SAM 250 nM, 60 min. The method, boiled down: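 PRMT5-MEP50 (2.5 nM final) preincubated 5 min with compound, then reacted 60 min at ambient temperature with 100 nM biotinylated N-acetyl histone H4 peptide and 250 nM 3H-SAM in 20 mM Tris-HCl pH 8.0, 1 mM DTT, 0.01% Tween. Quenched with 15 μM cold SAM; methylated peptide captured on streptavidin flashplates, scintillation counted.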
PRMT5-MEP50, sequence (O14744 whole entry): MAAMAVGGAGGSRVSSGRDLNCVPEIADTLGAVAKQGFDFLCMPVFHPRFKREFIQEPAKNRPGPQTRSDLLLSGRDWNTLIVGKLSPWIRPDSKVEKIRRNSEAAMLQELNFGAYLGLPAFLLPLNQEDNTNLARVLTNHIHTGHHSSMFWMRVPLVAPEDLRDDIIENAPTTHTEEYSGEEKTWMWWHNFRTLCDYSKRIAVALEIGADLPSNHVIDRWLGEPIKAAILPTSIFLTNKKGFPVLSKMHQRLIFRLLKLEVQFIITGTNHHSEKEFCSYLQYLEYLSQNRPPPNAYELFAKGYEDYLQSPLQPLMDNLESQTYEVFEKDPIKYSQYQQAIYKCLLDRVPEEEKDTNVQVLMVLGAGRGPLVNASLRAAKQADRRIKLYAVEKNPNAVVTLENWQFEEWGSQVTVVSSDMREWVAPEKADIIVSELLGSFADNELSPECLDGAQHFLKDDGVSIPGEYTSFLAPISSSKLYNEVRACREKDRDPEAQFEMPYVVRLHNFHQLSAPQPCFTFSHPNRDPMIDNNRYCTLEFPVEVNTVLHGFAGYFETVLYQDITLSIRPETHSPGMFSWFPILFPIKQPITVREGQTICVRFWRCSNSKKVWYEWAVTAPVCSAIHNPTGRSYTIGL
PRMT5-MEP50, sequence (Q9BQA1 whole entry partner): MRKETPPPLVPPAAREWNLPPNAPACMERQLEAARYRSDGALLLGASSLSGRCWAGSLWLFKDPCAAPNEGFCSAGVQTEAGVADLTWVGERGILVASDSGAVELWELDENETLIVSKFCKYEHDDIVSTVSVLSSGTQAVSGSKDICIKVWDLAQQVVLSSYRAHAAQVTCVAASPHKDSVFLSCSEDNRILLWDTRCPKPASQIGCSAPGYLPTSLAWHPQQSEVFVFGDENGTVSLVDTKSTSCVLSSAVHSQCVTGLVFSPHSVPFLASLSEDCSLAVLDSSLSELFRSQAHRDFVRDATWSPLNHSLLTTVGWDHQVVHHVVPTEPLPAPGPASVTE

A further experiment deals with METTL1/WDR4 (Homo sapiens, UniProt Q9UBP6). Put plainly: METTL1 assay (3H-SAM flashplate scintillation). Particulars: METTL1/WDR4 6.25 nM, RNA 25 nM, 3H-SAM 60 nM, 20 min; read-out: METTL1 IC50. The procedure: (§1) Assays were performed in a 25 μl-volume in 384-well V-bottom polypropylene microplates (Greiner Bio-One, cat. No. 781280) at ambient temperature. Optimized 1× assay buffer was 20 mM HEPES pH 7.5, 50 mM KCl, 250 μM MgCl2, 1 mM DTT, 0.01% Tween, 0.01% BSG, 0.004 U/μl RNAseOUT (cat. No. 10777019, ThermoFisher Scientific, Waltham, Mass.). For compound screening METTL1/WDR4 (final concentration, f.c.=6.25 nM) was added using a Multidrop Combi (ThermoFisher Scientific, Waltham, Mass.) and preincubated for 5 min. Reactions were started by adding 3′ biotinylated RNA ([…]-biotin) (f.c.=25 nM) and 3H-SAM (f.c.=60 nM) substrates. Reactions proceeded for 20 minutes and were quenched with excess non-radioactive SAM (f.c.=15 μM). The reactions were then transferred to streptavidin-coated flashplates and incubated for 2 hours at 25° C. Following two washing cycles with 0.1% Tween-20, the plates were sealed and read on a TopCount (PerkinElmer, Waltham, Mass.) plate-based scintillation counter. For determination of kinetic parameters, reaction times were optimized so that measurements were taken during the initial velocity phase of the reaction.
METTL1/WDR4, sequence (Q9UBP6 whole entry, species assumed): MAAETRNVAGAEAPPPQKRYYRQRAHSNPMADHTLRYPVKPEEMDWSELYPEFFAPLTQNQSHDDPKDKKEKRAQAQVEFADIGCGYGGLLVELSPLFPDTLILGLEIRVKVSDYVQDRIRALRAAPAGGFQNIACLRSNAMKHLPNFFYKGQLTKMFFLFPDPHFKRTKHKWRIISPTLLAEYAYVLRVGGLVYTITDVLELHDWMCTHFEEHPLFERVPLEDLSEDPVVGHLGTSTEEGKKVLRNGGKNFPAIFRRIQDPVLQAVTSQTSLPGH
METTL1/WDR4, sequence (P57081 whole entry partner, species assumed): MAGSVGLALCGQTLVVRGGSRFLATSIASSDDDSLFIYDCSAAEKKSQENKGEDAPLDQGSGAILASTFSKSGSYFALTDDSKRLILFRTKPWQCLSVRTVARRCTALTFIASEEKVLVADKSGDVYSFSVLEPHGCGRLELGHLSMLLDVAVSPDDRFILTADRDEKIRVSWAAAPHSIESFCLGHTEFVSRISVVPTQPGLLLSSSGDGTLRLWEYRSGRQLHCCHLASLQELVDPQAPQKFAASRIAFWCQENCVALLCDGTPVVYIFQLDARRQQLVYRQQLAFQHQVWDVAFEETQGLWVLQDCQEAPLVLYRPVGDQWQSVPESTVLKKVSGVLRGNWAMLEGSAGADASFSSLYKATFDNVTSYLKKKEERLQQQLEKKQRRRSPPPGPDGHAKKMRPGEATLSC

The target of a further experiment is T1, METTL16 (Homo sapiens, UniProt Q86W50).
T1 sequence (Q86W50 1-562): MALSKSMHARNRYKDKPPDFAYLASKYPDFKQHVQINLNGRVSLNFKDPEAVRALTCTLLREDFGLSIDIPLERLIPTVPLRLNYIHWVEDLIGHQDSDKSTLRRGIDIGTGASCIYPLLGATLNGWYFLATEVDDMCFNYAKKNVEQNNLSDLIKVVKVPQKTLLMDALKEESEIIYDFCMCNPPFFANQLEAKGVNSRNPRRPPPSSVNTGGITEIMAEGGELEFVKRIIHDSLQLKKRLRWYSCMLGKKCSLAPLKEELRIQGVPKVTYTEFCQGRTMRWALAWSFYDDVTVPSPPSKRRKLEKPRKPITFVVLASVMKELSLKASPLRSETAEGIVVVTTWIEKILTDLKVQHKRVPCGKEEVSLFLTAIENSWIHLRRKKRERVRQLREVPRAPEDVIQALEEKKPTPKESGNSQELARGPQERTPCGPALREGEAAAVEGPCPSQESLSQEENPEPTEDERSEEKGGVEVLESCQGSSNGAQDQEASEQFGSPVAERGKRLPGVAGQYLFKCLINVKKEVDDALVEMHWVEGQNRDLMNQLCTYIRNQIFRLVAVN
Put plainly: METTL16 assay (3H-SAM flashplate scintillation). Particulars: METTL16 100 nM, RNA 50 nM, 3H-SAM 200 nM, SAM 800 nM, 20 min. As for the experimental part: as §1, with “KCl,” for “KCl, 250 μM MgCl2,”, “METTL16” for “METTL1/WDR4”, “f.c.=100” for “f.c.=6.25”, “(f.c.=50 nM), 3H-SAM (f.c.=200” for “(f.c.=25”, “non-radiolabeled SAM (f.c.=800” for “3H-SAM (f.c.=60”, “(f.c.=100” for “(f.c.=15”

METTL3/METTL14, sequence (Q86U44 whole entry, species assumed): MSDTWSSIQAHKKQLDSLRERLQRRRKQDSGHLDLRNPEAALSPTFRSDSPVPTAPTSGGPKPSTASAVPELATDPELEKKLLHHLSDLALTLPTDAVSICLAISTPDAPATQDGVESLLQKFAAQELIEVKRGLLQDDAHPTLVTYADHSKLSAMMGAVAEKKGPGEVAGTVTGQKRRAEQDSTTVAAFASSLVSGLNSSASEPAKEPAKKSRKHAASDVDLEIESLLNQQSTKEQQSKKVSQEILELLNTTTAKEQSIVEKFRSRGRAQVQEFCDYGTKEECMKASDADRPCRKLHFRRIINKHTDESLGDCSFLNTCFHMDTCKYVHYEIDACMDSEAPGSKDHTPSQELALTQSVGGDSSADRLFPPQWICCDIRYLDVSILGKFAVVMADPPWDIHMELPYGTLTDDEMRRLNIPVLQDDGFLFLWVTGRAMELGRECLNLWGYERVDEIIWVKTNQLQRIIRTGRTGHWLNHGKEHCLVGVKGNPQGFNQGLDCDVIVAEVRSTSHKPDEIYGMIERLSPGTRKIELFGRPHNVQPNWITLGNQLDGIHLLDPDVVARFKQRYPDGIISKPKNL
METTL3/METTL14, sequence (Q9HCE5 whole entry partner, species assumed): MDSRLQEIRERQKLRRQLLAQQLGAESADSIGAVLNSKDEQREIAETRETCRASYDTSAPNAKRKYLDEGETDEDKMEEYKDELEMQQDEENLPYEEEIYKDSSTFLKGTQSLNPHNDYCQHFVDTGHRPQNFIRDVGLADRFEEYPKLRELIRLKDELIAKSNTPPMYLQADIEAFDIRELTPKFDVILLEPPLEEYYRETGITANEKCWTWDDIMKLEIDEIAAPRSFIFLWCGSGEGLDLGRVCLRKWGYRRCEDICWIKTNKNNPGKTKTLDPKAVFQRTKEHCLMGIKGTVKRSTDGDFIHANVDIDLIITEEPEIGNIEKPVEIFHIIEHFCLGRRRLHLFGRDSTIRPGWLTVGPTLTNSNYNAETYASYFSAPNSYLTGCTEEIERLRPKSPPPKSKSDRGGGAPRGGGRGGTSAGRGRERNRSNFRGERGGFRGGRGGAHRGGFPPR

By IC50 is commonly meant the concentration that inhibits the measured activity by half. Consider `CNc1ccc2ccc(CNc3cccc(-n4cc(Br)c5c(N)ncnc54)c3)cc2n1` [Compound I-72, 7-{[(3-{4-amino-5-bromo-7H-pyrrolo[2,3-d]pyrimidin-7-yl}phenyl)amino]methyl}-N-methylquinolin-2-amine], for which the IC50 against METTL3/METTL14 is 0.1 to 1 µM; on PRMT5-MEP50 it was over 1 µM; at METTL1/WDR4, over 1 µM; on METTL16, over 1 µM.

As to `CNc1ccc2ccc(OCc3cccc(-n4cc(C5CCCC5)c5c(N)ncnc54)c3)cc2n1` [Compound I-86], the IC50 against METTL3/METTL14 was 0.01 to 0.1 µM; against PRMT5-MEP50, over 1 µM; on METTL1/WDR4, over 1 µM; on METTL16 it was over 1 µM.

Regarding `Cc1cc(N)c2ccc(OCc3cccc(-n4cc(Cl)c5c(N)ncnc54)c3)cc2n1` [Compound I-65], the IC50 is 0.01 to 0.1 µM against METTL3/METTL14, over 1 µM against PRMT5-MEP50, over 1 µM at METTL1/WDR4 and over 1 µM at METTL16.

In the case of `CNc1ccc2ccc(OCc3cc(-n4cc(Cl)c5c(N)ncnc54)ccc3F)cc2n1` [Compound I-80], the IC50 against METTL3/METTL14 was 0.01 to 0.1 µM; at PRMT5-MEP50, over 1 µM; on METTL1/WDR4, over 1 µM; on METTL16, over 1 µM.

Take `CNc1ccc2ccc(OCc3cc(-n4cc(Cl)c5c(N)ncnc54)ncn3)cc2n1` [Compound I-64]: the IC50 against METTL3/METTL14, at PRMT5-MEP50, at METTL1/WDR4 and against METTL16 was over 1 µM each time.

For `CCc1ncc(-n2cc(Cl)c3c(N)ncnc32)cc1COc1ccc2ccc(NC)nc2c1` [Compound I-68], the IC50 on METTL3/METTL14 was 0.01 to 0.1 µM; against PRMT5-MEP50, over 1 µM; at METTL1/WDR4 it was over 1 µM; on METTL16 it was over 1 µM.

Regarding `CNc1ccc2ccc(OCc3cncc(-n4cc(C5CCN(C)CC5)c5c(N)ncnc54)c3)cc2n1` [Compound I-33], the IC50 on METTL3/METTL14 is 0.1 to 1 µM; at PRMT5-MEP50 it was over 1 µM; on METTL1/WDR4, over 1 µM; on METTL16, over 1 µM.

As for `CNc1ccc2ccc(OCc3cccc(-c4c[nH]c5c(N)ncnc45)c3)cc2n1` [Compound I-71], the IC50 on METTL3/METTL14 was 0.01 to 0.1 µM; against PRMT5-MEP50 it was over 1 µM; at METTL1/WDR4, over 1 µM; against METTL16, over 1 µM.

As for `CNc1ccc2ccc(OCc3cc(C#N)cc(-n4ccc5c(N)ncnc54)c3)cc2n1` [Compound I-119], the IC50 is 0.1 to 1 µM at METTL3/METTL14, over 1 µM against PRMT5-MEP50, over 1 µM at METTL1/WDR4 and over 1 µM against METTL16.

For the compound `Cc1cc(N)c2ccc(OCc3cccc(-n4ccc5c(N)ncnc54)c3)cc2n1` [Compound I-66], the IC50 is 0.1 to 1 µM against METTL3/METTL14, over 1 µM against PRMT5-MEP50, over 1 µM at METTL1/WDR4 and over 1 µM on METTL16.

For the compound `CNc1ccc2ccc(OCc3cc(-n4cc(Cl)c5c(N)ncnc54)cnc3N)cc2n1` [Compound I-28], the IC50 at METTL3/METTL14 is 0.01 to 0.1 µM; against PRMT5-MEP50, over 1 µM; on METTL1/WDR4 it was over 1 µM; on METTL16 it was over 1 µM.

Consider `CNc1ccc2ccc(OCc3cccc(-n4cc(CC5CC5)c5c(N)ncnc54)c3)cc2n1` [Compound I-79], for which the IC50 against METTL3/METTL14 is 0.01 to 0.1 µM; against PRMT5-MEP50, over 1 µM; on METTL1/WDR4, over 1 µM; against METTL16 it was over 1 µM.

On to `CNc1ccc2ccc(OCc3cc(F)cc(-n4cc(Cl)c5c(N)ncnc54)c3)cc2n1` [Compound I-76], for which the IC50 against METTL3/METTL14 was 0.01 to 0.1 µM; at PRMT5-MEP50, over 1 µM; at METTL1/WDR4, over 1 µM; on METTL16, over 1 µM.

Take `CNc1ccc2ccc(OCc3cccc(-n4cc(CCN(C)C)c5c(N)ncnc54)c3)cc2n1` [Compound I-32]: the IC50 against METTL3/METTL14 was 0.1 to 1 µM; against PRMT5-MEP50, over 1 µM; at METTL1/WDR4, over 1 µM; against METTL16, over 1 µM.

As for `CNc1ccc2ccc(OCc3cncc(-n4ccc5c(C)ncnc54)c3)cc2n1` [Compound I-44], the results for the IC50 on METTL3/METTL14, against PRMT5-MEP50 and against METTL16 were 0.01 to 0.1 µM, over 1 µM and over 1 µM, respectively.

With `CNc1ccc2ccc(OCc3cccc(-n4ccc5c(N)ncnc54)c3F)cc2n1` [Compound I-226], the 50% inhibitory concentration (IC50) was 0.01 to 0.1 µM against METTL3/METTL14, over 1 µM at PRMT5-MEP50, over 1 µM on METTL1/WDR4 and over 1 µM against METTL16.

On to `CNc1ccc2ccc(OCc3cncc(-n4ccc5c(N)nc(N)nc54)c3)cc2n1` [Compound I-56], for which the IC50 against METTL3/METTL14 is 0.1 to 1 µM; at PRMT5-MEP50 it was over 1 µM; against METTL16, over 1 µM.

For the compound `Nc1ncnc2c1c(Cl)cn2-c1cccc(COc2ccc3ccc(NCC4CC4)nc3c2)c1` [Compound I-67], the IC50 at METTL3/METTL14 was 0.1 to 1 µM; against PRMT5-MEP50 it was over 1 µM; on METTL1/WDR4, over 1 µM; at METTL16, over 1 µM.

In the case of `CNc1ccc2ccc(OCc3cc(O)cc(-n4cc(Cl)c5c(N)ncnc54)c3)cc2n1` [Compound I-81], the IC50 is 0.01 to 0.1 µM against METTL3/METTL14, over 1 µM at PRMT5-MEP50, over 1 µM at METTL1/WDR4 and over 1 µM at METTL16.

Consider `CNc1ccc2ccc(OCc3ccnc(-n4cc(Cl)c5c(N)ncnc54)c3)cc2n1` [Compound I-85], for which the IC50 is 0.1 to 1 µM against METTL3/METTL14, over 1 µM at PRMT5-MEP50, over 1 µM on METTL1/WDR4 and over 1 µM on METTL16.

On to `CNc1ccc2ccc(CN(C)c3cccc(-n4cc(Br)c5c(N)ncnc54)c3)cc2n1` [Compound I-69], for which the IC50 at METTL3/METTL14, on PRMT5-MEP50, on METTL1/WDR4 and at METTL16 was over 1 µM throughout.

Take `CNc1ccc2ccc(OCc3cc(-n4cc(Cl)c5c(N)ncnc54)ccc3OC)cc2n1` [Compound I-83]: the IC50 against METTL3/METTL14, against PRMT5-MEP50 and against METTL16 was over 1 µM each time.

In the case of `CNc1ccc2ccc(OCc3cc(OC)cc(-n4cc(Cl)c5c(N)ncnc54)c3)cc2n1` [Compound I-82], the IC50 on METTL3/METTL14 is 0.1 to 1 µM; at PRMT5-MEP50, over 1 µM; at METTL16, over 1 µM.

Regarding `CNc1ccc2ccc(OCc3cncc(-n4ccc5c(N)nc(N(C)C)nc54)c3)cc2n1` [Compound I-49], the IC50 against METTL3/METTL14, against PRMT5-MEP50 and at METTL16 was over 1 µM throughout.

Regarding `C=CC(=O)Nc1nc(N)c2ccn(-c3cncc(COc4ccc5ccc(NC)nc5c4)c3)c2n1` [Compound I-31], the IC50 on METTL3/METTL14, at PRMT5-MEP50 and on METTL16 was over 1 µM throughout.

Take `CNc1ccc2ccc(OCc3cncc(-n4cc(C5CCCC5)c5cncnc54)c3)cc2n1` [Compound I-57]: the IC50 is 0.1 to 1 µM against METTL3/METTL14, over 1 µM at PRMT5-MEP50 and over 1 µM at METTL16.
